One compound from patent US20210228500A1, “CELLULAR RETINOID BINDING PROTEIN ANTAGONISTS AND USES THEREOF” (CASE WESTERN RESRVE UNIVERSITY, priority 2018, published 2021) can be followed below.

For one series, the target named is T1, CRBP4 (Homo sapiens, UniProt Q96R05).
T1 construct: thrombin cut site (residual residues after digestion) (C); 6x histidine tag (C, cleaved yes); made in house; host or cells: E. coli BL21 (DE3) (as for CRBP2)
T1 sequence (Q96R05 1-134): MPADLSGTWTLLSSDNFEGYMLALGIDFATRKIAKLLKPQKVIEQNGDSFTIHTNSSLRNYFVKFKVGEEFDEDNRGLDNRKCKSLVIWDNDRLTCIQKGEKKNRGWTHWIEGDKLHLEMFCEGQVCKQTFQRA
Put plainly: Crystal structure of CRBP4 in complex with abn-CBD. The series is classed as binding. Conditions: crystal structure PDB No. 6E6K. The text has this: The cDNA of human CRBP4 was purchased from Origene Technologies. The introduction of a thrombin cut site at the C-terminus was achieved by PCR amplification of the cDNA. The PCR product was subcloned into pET30b vector. For the most part, CRBP4 was expressed and purified as described for CRBP2. However, after digestion with thrombin and reloading onto HisTrap column, the unbound fraction of the protein was further purified on a HiTrap SP HP ion exchanger column (GE Healthcare). CRBP4 was loaded in 10 mM Tris/HCl buffer, pH 8.0 buffer, and subsequently eluted with a gradient of NaCl (0-0.5 M) over 30 min at a flow rate 1.0 mL min^−1. Purified CRBP4 was concentrated to 6 mg mL^−1 and liquated at −80° C.
Crystals of CRBP1 in complex abn-CBD and its derivatives (abn-CBDO or CBDO) were grown essentially as described by Silvaroli et al (ACS Chem Biol. 2019, 15; 14(3)). The apo protein at 3 mg mL-1 was preincubated with 300 μM of a ligand in 10 mM Tris-HCl buffer, pH 8.0, 150 mM NaCl for 15 min on ice. This sample (1 μL) was mixed in 1:1 ratio with a crystallization solution composed of 0.1 M BisTris, pH 5.5, and 25% poly(ethylene glycol) (PEG) 3350 (w/v). […]

For the next series, the target named is T2, holo-CRBP1 (Homo sapiens, UniProt P09455).
T2 construct: made in house
T2 sequence (P09455 1-135): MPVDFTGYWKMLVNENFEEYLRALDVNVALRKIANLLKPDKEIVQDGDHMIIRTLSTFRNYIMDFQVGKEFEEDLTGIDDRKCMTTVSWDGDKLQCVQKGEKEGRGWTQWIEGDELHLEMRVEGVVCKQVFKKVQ
The experiment in a line: Retinol replacement assay with repurification and LC/MS. The series is classed as binding. Here is the method:
holo-CRBP1 (500 μg) in 0.5 mL (67 μM) was incubated with tested compound (1:2 molar ratio) delivered in ethanol in 20 mM Tris/HCl, pH 8.0, 200 mM NaCl, 5% glycerol (v/v) at RT for 15 min. The sample was then diluted with 10 mM Tris/HCl, pH 8.0 to the final volume of 5 mL, loaded onto HiTrap Q HP column, and eluted as described above. The elution profiles were monitored at both 280 and 325 nm to concurrently record signals for the protein and the retinoid moieties.
After incubation of apo- or holo-CRBP1 with abn-CBD, the protein was repurified on HiTrap Q HP column as described above. The protein fractions were collected, pooled together, and concentrated to 0.25 mL in an Amicon Ultra-4 centrifugal filter, cutoff 10,000 Da. For quantification purpose, 100 pmol of 3d-abn-CBD (internal standard) were added to the protein samples. To extract organic compounds associated with the repurified CRBP1, 0.25 mL of ethanol was added followed by 4 mL of hexane. […] Abn-CBD and its deuterated derivative were detected in the selected reaction monitoring (SRM) mode using m/z 315.2→221.2 and 318.2→224.1 transitions, respectively. Calibration curves were calculated based on the linear relationship between areas under SRM ion intensity for peaks corresponding to abn-CBD and the internal standard versus molar ratios of these compounds in a range from 20 to 500 pmol.

Series [1] can be described thus: Detection and quantification of abn-CBD in the ocular tissues. Conditions: single dose 15 mg kg^−1 i.p. The format is in vivo, Balb/cJ mice. How it is done:
Balb/cJ mice were i.p. injected with 15 mg kg^−1 dose of abn-CBD. At the time points between 1 and 15 h, they were deeply anesthetized by ketamine/xylazine injection and perfused with PBS. Perfused eyes were collected and homogenized in 1 mL of PBS/methanol (v/v). During the homogenization, 100 pmol of an internal standard (3d-abn-CBD) was added. The samples were extracted with 4 mL of hexane and centrifuged at 15,000 g for […] at 4° C. The organic solvent was transferred to glass test tubes and dried in a Savant speedvac concentrator (Thermo Fisher Scientific). The extracted compounds were dissolved in 0.3 mL of ethanol and subjected to LC/MS analysis and quantification as described above.

Each structure is given as a SMILES string. Entries after “also recorded” stand apart in the source; their conditions may differ.

For the compound `C=C(C)[C@@H]1CCC(C)=C[C@H]1c1c(O)cc(O)cc1CCCCC` [abn-CBD, 4-[(1R,6R)-3-Methyl-6-prop-1-en-2-ylcyclohex-2-en-1-yl]-5-pentylbenzene-1,3-diol], the “binding to CRBP4” value on CRBP4 is listed as “bind abn-CBD similarly to CRBP1”. Besides, the “loss of atROL from holo-CRBP1 (absorbance at 325 nm)” value at holo-CRBP1 (holo-CRBP1 incubated with compound 1:2 molar ratio, repurified) is given as “diminished absorbance at 325 nm; also recorded: depletion of atROL”. In addition, the “replacement of atROL by ligand (ligand/protein quantification)” value at holo-CRBP1 (holo-CRBP1 with 2 molar excess of abn-CBD, LC/MS) is given as “proportional replacement of the retinoid by the cannabinoid”. Also, the half-life in series [1] (Balb/cJ, mouse, eye (PBS-perfused, homogenate), ip) was around 7 h. In series [1], the “time of maximum ocular level after the injection” value is listed as 2 h. Also, in series [1] (PBS-perfused eyes), the “ocular level, maximum value” is 58 pmol/eye.
